Literature values in patent US20260007632A1, “FORMULATIONS OF DOCETAXEL” (Zhuhai Beihai Biotech Co., Ltd., priority 2020, published 2026).

Key:
microtubule = conditions: relative to paclitaxel

volume of ethanol required to dissolve 1 g (at 25° C.) [mL] | volume of water required to dissolve 1 g (at 25° C.) [mL] | solubility in water | Compound | potency in inhibiting microtubule depolymerization (microtubule)
5 | 300 |  | CC(=O)Oc1ccccc1C(=O)O [aspirin] | 
 |  | very poor water solubility | CC(=O)O[C@@]12CO[C@@H]1C[C@H](O)[C@@]1(C)C(=O)[C@H](O)C3=C(C)[C@@H](OC(=O)[C@H](O)[C@@H](NC(=O)OC(C)(C)C)c4ccccc4)C[C@@](O)([C@@H](OC(=O)c4ccccc4)[C@H]21)C3(C)C [docetaxel] | about twice as potent as paclitaxel
